# Source: patent US10398725B2, “Ophthalmic compositions and methods of use” (Veloce BioPharma, LLC, priority 2015, dated 2019)
# Assays:
# Assay type in all cases: in vivo, human
# [1] = system: rosacea blepharoconjunctivitis; test: Example 3B: person with rosacea blepharoconjunctivitis; conditions: before the PVP-I/DMSO gel
# From the text: B. Rosacea Blepahritis; Treated with 1% PVP-I in 44% USP Grade DMSO with 4% Hydroxyethylcellulose in Water
# A person with a past ocular history of glaucoma and pseudophakia presented with long standing ocular dryness, grittiness, periocular erythema and eyelid crusting. On facial inspection, nasal and facial telangiectasia with flushing were evident. Their topical medical regimen included Latanoprost 1 drop QHS OU, Brimonidine 1 drop BID OU, and Dorzolamide/Timolol 1 drop BID OU. The patient endorsed utilization of a variety of medicines and treatments to abate this condition, however, they were of little benefit. Failed therapies included topical steroids, antibiotics including azithromycin, combination medicines, and cyclosporine. Oral medicines including doxycycline and DHA/ALA/EPA were also ineffective.
# Further towards the posterior tarsal area, dilated, engorged telangiectatic vessels were present. […] A diagnosis of rosacea blepharoconjunctivitis was made.
# The patient was given a topical gel of 1% PVP-I in a dimethylsulfoxide (DMSO) vehicle that was prepared from a licensed compounding pharmacy. The treatment was administered twice daily and delivered by rubbing the gel onto the lash line and eyelid. […] Most prominently, much of the conjunctivitis, anterior lid erythema and thickening had reversed. […]
# [2] = system: Acanthamoeba corneal ulceration; test: Example 16: patient with Acanthamoeba corneal ulceration; conditions: before the PVP-I/DMSO composition
# From the text: Acanthamoeba Corneal Ulceration; Treated with Aqueous 0.4% PVP-I in 39% USP Grade DMSO with Hydroxyethyl Cellulose
# This patient was suffering from an Acanthamoeba corneal ulceration. In this type of infection there is often a history of contact lens use and home-made contact lens solutions, however, this is not a prerequisite. Acanthamoeba parasites are often introduced into the eye through a small break in the epithelium and gains foothold to the underlying structures. The patient endorses pain out of proportion with examination. […] The cornea contained multiple bullous lesions with enlarged corneal nerves. There was an overlying epithelial defect and faint ring-shaped infiltrate. The infiltrate had induced minimal stromalysis and the resultant cornea was not thinned. There was no hypopyon, however, cell and flare were present. Corneal cultures were taken, and Acanthamoeba species were identified on non-nutrient agar with E. coli overlay. […] Prepared was a composition as disclosed herein using 0.4% PVP-I in 39% DMSO with hydroxyethyl cellulose. The patient was treated by applying the solution topically to the eye six times daily. […] The corneal had begun the process of re-epithelialization and the ring ulcer began to lessen in intensity. […] A central corneal cicatrix was evident in the area of previous active infiltrate.
# [3] = system: eyelid associated molluscum contagiosum; test: Example 21: patient with eyelid molluscum contagiosum; conditions: before the PVP-I/DMSO composition
# Experimental: Eyelid Molluscum Contagiosum; Treated with 9% PVP-I in 39% USP Grade DMSO with 3% Hydroxyethylcellulose
# This patient was suffering from an eyelid associated molluscum contagiosum. […] The process is often associated with pox virus infection of the epithelial layers. […] Cryotherapy with excision was eventually performed, however, the lesions recurred. Prepared was a composition as disclosed herein using 0.9% PVP-I in 39% DMSO with hydroxyethyl cellulose. The patient was treated by applying the solution topically to the eyelid and margin structures four times daily. […] The lesions had begun to involute and diminish in surface area.
Structure (SMILES),outcome of earlier therapies (patient history) [2],outcome of earlier therapies (patient history) [3],also measured
CC[C@H]1OC(=O)[C@H](C)[C@@H](O[C@H]2C[C@@](C)(OC)[C@@H](O)[C@H](C)O2)[C@H](C)[C@@H](O[C@@H]2O[C@H](C)C[C@H](N(C)C)[C@H]2O)[C@](C)(O)C[C@@H](C)CN(C)[C@H](C)[C@@H](O)[C@]1(C)O [azithromycin],,,outcome of earlier therapies (patient history) [1]: Failed
[H]/N=C(\N/C(=N/[H])NCCCCCCNC(=N)NC(=N)Nc1ccc(Cl)cc1)Nc1ccc(Cl)cc1 [chlorhexidine],without benefit,,
CC(C)Cn1cnc2c(N)nc3ccccc3c21 [imiquimod],,without benefit,
N=C(N)c1ccc(OCCCOc2ccc(C(=N)N)cc2)cc1 [propamidine],without benefit,,
O=C(O)c1ccccc1O [salicylic acid],,without benefit,
